Measurements reported in US20250263390A1, “NOVEL SUBSTITUTED 6,7-DIHYDRO-5H-BENZO[7]ANNULENE COMPOUNDS AND THEIR DERIVATIVES, PROCESSES FOR THEIR PREPARATION AND THERAPEUTIC USES THEREOF” (SANOFI, priority 2022, published 2025).

biological target: T1, ERα (Homo sapiens, UniProt P03372); test: Estrogen receptor degradation activity: breast cancer cell ERα in cell western assay; assay type: cell-based; settings: MCF7 cells, 4 hours, relative to fulvestrant 0.1 μM positive control
T1 construct: host or cells: MCF7
T1 sequence (P03372 1-595): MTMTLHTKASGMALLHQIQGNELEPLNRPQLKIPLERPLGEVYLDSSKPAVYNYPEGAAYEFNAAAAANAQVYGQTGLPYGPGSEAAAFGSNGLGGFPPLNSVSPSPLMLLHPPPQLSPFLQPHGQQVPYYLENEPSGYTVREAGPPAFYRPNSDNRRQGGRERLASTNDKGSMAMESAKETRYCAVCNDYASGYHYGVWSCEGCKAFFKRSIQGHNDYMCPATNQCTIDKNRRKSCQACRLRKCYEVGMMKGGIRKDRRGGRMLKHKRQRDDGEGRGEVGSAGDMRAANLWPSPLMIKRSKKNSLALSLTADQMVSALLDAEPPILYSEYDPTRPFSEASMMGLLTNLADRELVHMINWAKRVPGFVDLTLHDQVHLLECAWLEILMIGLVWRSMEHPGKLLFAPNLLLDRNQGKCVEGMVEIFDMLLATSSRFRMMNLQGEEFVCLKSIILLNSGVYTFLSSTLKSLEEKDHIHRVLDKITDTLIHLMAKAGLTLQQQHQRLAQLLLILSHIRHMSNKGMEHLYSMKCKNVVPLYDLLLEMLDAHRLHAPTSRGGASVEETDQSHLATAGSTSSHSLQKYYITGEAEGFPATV
Outline: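 MCF7 cells in phenol red-free medium with 5% charcoal-stripped FBS, 4 h exposure to 9-point 1:5 dilutions (final 0.3–0.0000018 μM). ERα immunostained in fixed cells and normalised to DNA dye; % decrease scaled between DMSO and 0.1 μM fulvestrant, IC50 reported in nM.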

First: O=C(O)c1ccc2c(c1)CCCC(c1cccc(C(F)(F)F)c1C(F)(F)F)=C2c1ccc(CC2CN(CCCF)C2)cc1 [Compound 59, 8-(2,3-bis(trifluoromethyl)phenyl)-9-(4-((1-(3-fluoropropyl)azetidin-3-yl)methyl)phenyl)-6,7-dihydro-5H-benzo[7]annulene-3-carboxylic acid]
Second: CCc1c(C2=C(c3ccc(CC4CN(CCCF)C4)cc3)c3ccc(C(=O)O)cc3CCC2)cccc1C(F)(F)F [Compound 67, 8-(2-ethyl-3-(trifluoromethyl)phenyl)-9-(4-((1-(3-fluoropropyl)azetidin-3-yl)methyl)phenyl)-6,7-dihydro-5H-benzo[7]annulene-3-carboxylic acid]
The “% Degradation At 0.3 μM” value of the first is higher: 95% for the first, 93% for the second.

Going from `COc1ccc(C(F)F)c(C2=C(c3ccc(CC4CN(CCCF)C4)cc3)c3ccc(C(=O)O)cc3CCC2)c1.Cl` [Compound 60, 8-(2-(difluoromethyl)-5-methoxyphenyl)-9-(4-((1-(3-fluoropropyl)azetidin-3-yl)methyl)phenyl)-6,7-dihydro-5H-benzo[7]annulene-3-carboxylic acid, hydrochloride] to `Cc1cccc(C(F)F)c1C1=C(c2ccc(CC3CN(CCCF)C3)cc2)c2ccc(C(=O)O)cc2CCC1` [Compound 66, 8-(2-(difluoromethyl)-6-methylphenyl)-9-(4-((1-(3-fluoropropyl)azetidin-3-yl)methyl)phenyl)-6,7-dihydro-5H-benzo[7]annulene-3-carboxylic acid], the “% Degradation At 0.3 μM” value falls from 95% to 90%.

First: Cc1c(O)cccc1C1=C(c2ccc(CC3CN(CCCF)C3)cc2)c2ccc(C(=O)O)cc2CCC1.Cl [Compound 61, 9-(4-((1-(3-fluoropropyl)azetidin-3-yl)methyl)phenyl)-8-(3-hydroxy-2-methylphenyl)-6,7-dihydro-5H-benzo[7]annulene-3-carboxylic acid, hydrochloride]
Second: Cc1c(C2=C(c3ccc(CC4CN(CCCF)C4)cc3)c3ccc(C(=O)O)cc3CCC2)ccc(C(F)(F)F)c1F.Cl [Compound 64, 8-(3-fluoro-2-methyl-4-(trifluoromethyl)phenyl)-9-(4-((1-(3-fluoropropyl)azetidin-3-yl)methyl)phenyl)-6,7-dihydro-5H-benzo[7]annulene-3-carboxylic acid, hydrochloride]
The “% Degradation At 0.3 μM” value of the first is lower: 90% for the first, 100% for the second.

First: CC(F)(F)c1cc(F)ccc1C1=C(c2ccc(CC3CN(CCCF)C3)cc2)c2ccc(C(=O)O)cc2CCC1 [Compound 62, 8-(2-(1,1-difluoroethyl)-4-fluorophenyl)-9-(4-((1-(3-fluoropropyl)azetidin-3-yl)methyl)phenyl)-6,7-dihydro-5H-benzo[7]annulene-3-carboxylic acid]
Second: COc1cccc(C(F)(F)F)c1C1=C(c2ccc(CC3CN(CCCF)C3)cc2)c2ccc(C(=O)O)cc2CCC1 [Compound 63, 9-(4-((1-(3-fluoropropyl)azetidin-3-yl)methyl)phenyl)-8-(2-methoxy-6-(trifluoromethyl)phenyl)-6,7-dihydro-5H-benzo[7]annulene-3-carboxylic acid]
The “% Degradation At 0.3 μM” value of the first is higher: 95% for the first, 90% for the second.

First: COc1c(F)ccc(C)c1C1=C(c2ccc(CC3CN(CCCF)C3)cc2)c2ccc(C(=O)O)cc2CCC1 [Compound 65, 8-(3-fluoro-2-methoxy-6-methylphenyl)-9-(4-((1-(3-fluoropropyl)azetidin-3-yl)methyl)phenyl)-6,7-dihydro-5H-benzo[7]annulene-3-carboxylic acid]
Second: CCc1cccc(C2=C(c3ccc(CC4CN(CCCF)C4)cc3)c3ccc(C(=O)O)cc3CCC2)c1C(F)(F)F [Compound 68, 8-(3-ethyl-2-(trifluoromethyl)phenyl)-9-(4-((1-(3-fluoropropyl)azetidin-3-yl)methyl)phenyl)-6,7-dihydro-5H-benzo[7]annulene-3-carboxylic acid]
The “% Degradation At 0.3 μM” value of the first is higher: 100% for the first, 92% for the second.
